Here are results for three molecules from US6610824B2 (Amylin Pharmaceuticals, Inc., priority 1991, dated 2003).

pIC50: −log10 of the molar value. Where a SMILES comes first, the peptide text is derived from it.

In one data set the target is T1, amylin receptors (Rattus norvegicus, UniProt P32214).
T1 construct: This basal forebrain tissue, containing the nucleus accumbens and surrounding regions, was weighed and homogenized; from tissue; host or cells: rat basal forebrain (nucleus accumbens and surrounding regions) membranes
T1 sequence (P32214 25-516): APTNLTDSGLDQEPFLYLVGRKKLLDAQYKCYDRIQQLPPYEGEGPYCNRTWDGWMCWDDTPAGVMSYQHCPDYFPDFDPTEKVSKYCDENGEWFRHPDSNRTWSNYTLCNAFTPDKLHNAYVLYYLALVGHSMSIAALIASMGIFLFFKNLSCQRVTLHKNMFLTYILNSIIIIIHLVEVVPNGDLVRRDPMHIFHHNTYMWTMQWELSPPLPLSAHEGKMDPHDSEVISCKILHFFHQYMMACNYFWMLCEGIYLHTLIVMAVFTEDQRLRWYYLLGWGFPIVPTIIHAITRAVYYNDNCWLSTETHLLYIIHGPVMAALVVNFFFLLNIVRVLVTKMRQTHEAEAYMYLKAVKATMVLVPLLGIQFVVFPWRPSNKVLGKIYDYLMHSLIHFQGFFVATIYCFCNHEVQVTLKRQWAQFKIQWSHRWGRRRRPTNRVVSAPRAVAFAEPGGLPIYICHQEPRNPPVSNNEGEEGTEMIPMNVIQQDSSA
T1 sequence (Q9JJ74 27-148 partner): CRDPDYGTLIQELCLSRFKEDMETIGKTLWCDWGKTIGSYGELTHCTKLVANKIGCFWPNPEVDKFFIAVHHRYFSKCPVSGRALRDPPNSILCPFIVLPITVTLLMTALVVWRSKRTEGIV
The experiment in a line: Receptor binding assay (125I-rat amylin competition, rat basal forebrain membranes). As to conditions: competition with 125I-rat amylin at 12-16 pM. From the text:
Unlabeled peptides were obtained from BACHEM Inc. (Torrance, Calif.) and Peninsula Laboratories (Belmont, Calif.).
Male Sprague-Dawley rats (200-250) grams were sacrificed by decapitation. Brains were removed to cold phosphate-buffered saline (PBS). From the ventral surface, cuts were made rostral to the hypothalamus, bounded laterally by the olfactory tracts and extending at a 45Ε angle medially from these tracts. This basal forebrain tissue, containing the nucleus accumbens and surrounding regions, was weighed and homogenized in ice-cold 20 mM HEPES buffer (20 mM HEPES acid, pH adjusted to 7.4 with NaOH at 23ΕC). […] The final membrane pellet was resuspended in 20 mM HEPES buffer containing 0.2 mM phenylmethylsulfonyl fluoride (PMSF).
Solutions were incubated for 60 minutes at 2ΕC. […] Filters were washed immediately before filtration with 5 ml cold PBS, and immediately after filtration with 15 ml cold PBS.

A further data set can be described thus: Stability in solution. It is filed as physicochemical. Conditions: where a comparison is made, compared with human amylin. An excerpt:
(§1) This may be due in some measure, although this is not known, to the different aggregation properties of the amylins from different species.
(§2) The agonist analogues of amylin of this invention are useful in view of their pharmacological properties. […] In addition to the description of compounds pursuant to FIG. 3, certain preferred compounds are set forth in Table I. The preferred compounds des-^1Lys-h-amylin [SEQ. ID. NO. 7], ^28Pro-h-amylin [SEQ. ID. NO. 8], ^25, 28, 29Pro-h-amylin [SEQ. ID. NO. 9], ^18Arg^25, 28Pro-h-amylin [SEQ. ID. NO. 10], and des-^1Lys^18Arg^25, 28Pro-h-amylin [SEQ. ID. NO. […] These preferred compounds include ^25Pro^26Val^28, 29Pro-h-amylin [SEQ. ID. NO. 12], ^25, 28, 29Pro-h-amylin, and ^18Arg^25, 28Pro-h-amylin.

A further data set is described as follows: Solubility. It is filed as physicochemical. Conditions: where a comparison is made, compared with human amylin.
Source text: as §1, §2

In general, pIC50 refers to the negative decadic logarithm of the IC50, by convention in mol/L. High values mean a small IC50, low ones a large IC50. `CC[C@H](C)[C@H](NC(=O)[C@H](C)NC(=O)CNC(=O)[C@H](Cc1ccccc1)NC(=O)[C@H](CC(N)=O)NC(=O)[C@H](CC(N)=O)NC(=O)[C@H](CO)NC(=O)[C@H](CO)NC(=O)[C@H](Cc1c[nH]cn1)NC(=O)[C@@H](NC(=O)[C@H](CC(C)C)NC(=O)[C@H](Cc1ccccc1)NC(=O)[C@H](CC(N)=O)NC(=O)[C@H](C)NC(=O)[C@H](CC(C)C)NC(=O)[C@H](CCCNC(=N)N)NC(=O)[C@H](CCC(N)=O)NC(=O)[C@@H](NC(=O)[C@H](C)NC(=O)[C@@H]1CCCCNC(=O)C[C@H](NC(=O)[C@@H](N)CCCCN)C(=O)N[C@@H](CC(N)=O)C(=O)N[C@@H]([C@@H](C)O)C(=O)N[C@@H](C)C(=O)N[C@@H]([C@@H](C)O)C(=O)N1)[C@@H](C)O)C(C)C)C(=O)N[C@@H](CC(C)C)C(=O)N[C@@H](CO)C(=O)N[C@@H](CO)C(=O)N[C@H](C(=O)N[C@@H](CC(N)=O)C(=O)N[C@H](C(=O)NCC(=O)N[C@@H](CO)C(=O)N[C@@H](CC(N)=O)C(=O)N[C@H](C(=O)N[C@@H](Cc1ccc(O)cc1)C(N)=O)[C@@H](C)O)C(C)C)[C@@H](C)O` [Example 3, ^2, 7Cyclo-[^2Asp, ^7Lys]-h-Amylin] (HELM PEPTIDE1{K.D.N.T.A.T.K.A.T.Q.R.L.A.N.F.L.V.H.S.S.N.N.F.G.A.I.L.S.S.T.N.V.G.S.N.T.Y.[am]}$PEPTIDE1,PEPTIDE1,2:R3-7:R3$$$V2.0) gave a pIC50 on amylin receptors of 9.51. On to `CC[C@H](C)[C@H](NC(=O)[C@H](C)NC(=O)CNC(=O)[C@H](Cc1ccccc1)NC(=O)[C@H](CC(N)=O)NC(=O)[C@H](CC(N)=O)NC(=O)[C@H](CO)NC(=O)[C@H](CO)NC(=O)[C@H](Cc1c[nH]cn1)NC(=O)[C@@H](NC(=O)[C@H](CC(C)C)NC(=O)[C@H](Cc1ccccc1)NC(=O)[C@H](CC(N)=O)NC(=O)[C@H](C)NC(=O)[C@H](CC(C)C)NC(=O)[C@H](CCCNC(=N)N)NC(=O)[C@H](CCC(N)=O)NC(=O)[C@@H](NC(=O)[C@H](C)NC(=O)[C@@H]1CSSC[C@H](NC(=O)[C@@H](N)CCCCN)C(=O)N[C@@H](CC(N)=O)C(=O)N[C@@H]([C@@H](C)O)C(=O)N[C@@H](C)C(=O)N[C@@H]([C@@H](C)O)C(=O)N1)[C@@H](C)O)C(C)C)C(=O)N[C@@H](CC(C)C)C(=O)N[C@@H](CO)C(=O)N[C@@H](CO)C(=O)N[C@H](C(=O)N[C@@H](CC(N)=O)C(=O)N[C@H](C(=O)NCC(=O)N[C@@H](CO)C(=O)N[C@@H](CC(N)=O)C(=O)N[C@H](C(=O)N[C@@H](Cc1ccc(O)cc1)C(N)=O)[C@@H](C)O)C(C)C)[C@@H](C)O` [human amylin], for which, in “Stability in solution”, the stability in solution entry is given as “limited stability”. Moreover, in “Solubility”, the solubility result is listed as “limited solubility”. Consider rat amylin, for which the stability in solution result in the data set “Stability in solution” is “higher”. Moreover, the solubility result in “Solubility” is “higher”.
